This is an account of results in patent US5545640A, “Protease inhibiting succinic acid derivatives” (Bio-Mega/Boehringer Ingeleheim Research Inc., priority 1995, dated 1996).

The target in one assay is T1, HIV protease (Human immunodeficiency virus type 1 group M subtype B, UniProt P04585).
T1 construct: an HIV-encoded enzyme known as HIV protease
Description: biochemical. Particulars: read-out: IC50 (concentration causing 50% inhibition of HIV protease). An excerpt:
The procedure is based on the capacity of the test compound to inhibit enzymatic cleavage by HIV protease of a decapeptide (the substrate) having an amino acid sequence which includes a known HIV protease cleavage site of a HIV polyprotein; see H. G. Krausslich et al., Proc. Natl. Acad. Sci. USA, 86, 807 (1989).
Anderson, S. Rakhit and C. Yoakim in the European patent application 443 560, published Aug. 28, 1991.

In assay [1] the test system is HIV (H9/HTLV-IIIB stock) in C8166 cells. The assay is described as follows: Cell culture assay: inhibition of syncytia formation in HIV-infected C8166 cells (antiviral, anti-HIV effect). The class given is cell-based, HIV (HTLV-IIIB); human T4 cell line. Conditions: Human immunodeficiency virus 1; C8166 cells; H9/HTLV-IIIB, 50 times TCID50; 72 h, 37°; read-out: EC50 (concentration causing 50% inhibition of syncytia formation). An excerpt: Typical of such procedures are those described by S. Harada and N. Yamamoto, Jpn. J. Cancer Res. (Gann), 76, 432 (1985), and S. Harada et al., Science, 229, 563 (1985). An assay based on the latter procedures is described in the examples hereinafter.
In addition, Tables 1 to 8 list the results for exemplified compounds of formula 1 when assayed for antiviral (anti-HIV) effects according to the following protocol which is based on a cell culture assay previously described by Harada et al., supra. Transformed cells are used because of the rapidity with which HIV will replicate in the cells.
1. The test compound is dissolved in dimethylsulfoxide to a concentration of 5 mg/mL. The resultant solution .can be stored at 4° until use.
2. The resultant solution is diluted in RPMI 1640 (Gibco Laboratories, St. Lawrence, Mass., USA) to four times (4×) the final concentration which is to be tested. Once diluted in RPMI 1640, the solution is used in the cell culture assay within 4 h.
3. The latter solution (50 μL) is added to triplicate wells of a 96 well flat bottomed microtiter plate. RPMI (50 μL) also is added to control wells.
4. C8166 cells (5×10^4) in 50 μL of HEPES-buffered RPMI 1640 (pH=7.2), 10% heat inactivated fetal calf serum (FCS), […] gentamicin (complete media) are added to all wells.
5. Fifty times TCID50 of H9/HTLV-IIIB stock (stored in liquid nitrogen as cell culture supernatant in 50% FCS) in 100 μL of complete media is added to all wells. The infectious titer of the virus stocks is as previously determined by end point dilution on C8166 cells. The titer of stocks are stable for 6-12 months when stored at -193°.
6. Microtiter plates are then placed on level shelves of a 37°, 5% CO2 humidified incubator for 72 h.
7. Plates are then removed and centers of syncytia are counted in each well by low power phase contrast light microscopy. […] Control wells should have between 25 and 75 centers of syncytia per well.
8. Percent inhibition of syncytia formation is calculated by the formula: [formula]
The concentration of the test compound which causes a 50% inhibition of syncytia formation, i.e. the EC50, is determined by using the technique of serial dilution of the working solution at step 3 and graphically plotting the observed percent inhibition of syncytia formation against the various concentrations of the test compound.
In the following tables, assay results are listed for the exemplified compounds from the aforementioned recombinant HIV protease HPLC assay under the heading IC50 (nM) and from the cell culture assay under the heading EC50 (nM). Note that for some of the compounds listed in tables, the EC50 's have not been determined (ND).

The mark [2] stands for this setting: recombinant HIV protease, decapeptide substrate, HPLC assay.

Molecules are shown by their SMILES. Where two headings read alike, the source gives them in different places.

With `CCC(CC)NC(=O)C[C@@H](C(=O)NC[C@@H](O)[C@H](Cc1ccccc1)NC(=O)c1c(Cl)ccc(Cl)c1Cl)C(C)(C)C` [Entry 67], the IC50 on HIV protease (setting [2]) is 6 nM. Further, in assay [1], the EC50 stood at 360 nM.

In the case of `CCC(CC)NC(=O)C[C@@H](C(=O)NC[C@@H](O)[C@H](Cc1ccccc1)NC(=O)[C@H](CC(N)=O)NC(=O)c1cnc2ccccc2n1)C(C)(C)C` [Entry 36], the IC50 on HIV protease (setting [2]) was 3 nM. In assay [1], the EC50 was 260 nM.

Consider `CCC(CC)NC(=O)C[C@@H](C(=O)NC[C@@H](O)[C@H](Cc1ccccc1)NC(=O)[C@H](CC(N)=O)NC(=O)CCc1ccccc1)C(C)(C)C` [Entry 9], for which the IC50 at HIV protease (setting [2]) was determined as 15 nM. Moreover, the EC50 in assay [1] stood at 1900 nM.

With `CCC(CC)NC(=O)C[C@@H](C(=O)NC[C@@H](O)[C@H](Cc1ccccc1)NC(=O)[C@H](CC(N)=O)NC(=O)CCCc1ccccc1)C(C)(C)C` [Entry 21], the IC50 at HIV protease (setting [2]) stood at 5 nM. In addition, the EC50 in assay [1] worked out at 1100 nM.

Turning to `CC(C)[C@H](NC(=O)OCc1ccccc1)C(=O)N[C@@H](Cc1ccccc1)[C@H](O)CNC(=O)C(CC(=O)NC(C)(C)C)C(C)(C)C` (stereo partly shown) [Entry 51], the IC50 on HIV protease stood at 7 nM. Moreover, in assay [1], the EC50 stood at 200 nM.

For the compound `CCC(CC)NC(=O)C[C@@H](C(=O)NC[C@@H](O)[C@H](Cc1ccccc1)NC(=O)c1ccc(Cl)cc1)C(C)(C)C` [Entry 65], the IC50 at HIV protease (setting [2]) turned out to be 8.7 nM. In addition, in assay [1], the EC50 came to 845 nM.

With `CCC(CC)NC(=O)C[C@@H](C(=O)NC[C@@H](O)[C@H](Cc1ccccc1)NC(=O)[C@@H](NC(=O)c1cnc2ccccc2n1)[C@@H](C)O)C(C)(C)C` [Entry 26], at HIV protease, the IC50 was determined as 4 nM. Besides, the EC50 in assay [1] was found to be 65 nM.

For `CCC(CC)NC(=O)C[C@@H](C(=O)NC[C@@H](O)[C@H](Cc1ccccc1)NC(=O)[C@H](CC(N)=O)NC(=O)C=Cc1ccccc1)C(C)(C)C` [Entry 17], the IC50 on HIV protease (setting [2]) came out at 7 nM. Further, in assay [1], the EC50 was 1400 nM.

Turning to `CCC(CC)NC(=O)C[C@@H](C(=O)NC[C@@H](O)[C@H](Cc1ccccc1)NC(=O)[C@@H](NC(=O)c1ccc2ccccc2n1)C(C)(C)C)C(C)(C)C` [Entry 27], the IC50 on HIV protease (setting [2]) came to 4 nM. Moreover, the EC50 in assay [1] is 83 nM.

`CCC(CC)NC(=O)C[C@@H](C(=O)NC[C@@H](O)[C@H](Cc1ccccc1)NC(=O)[C@@H](NC(=O)OCc1ccccc1)C(C)C)C(C)(C)C` [Entry 32]: the IC50 on HIV protease (setting [2]) came out at 3 nM. The EC50 in assay [1] worked out at 63 nM.

For the compound `CCC(CC)NC(=O)C[C@@H](C(=O)NC[C@@H](O)[C@H](Cc1ccccc1)NC(=O)[C@@H](NC(=O)c1ccc2ccccc2n1)[C@@H](C)O)C(C)(C)C` [Entry 23, N^1-(1-Ethylpropyl)-N^4 -{3(S)-{[N-(2-quinolylcarbonyl)threonyl]amino}-2(R)-hydroxy-4-phenylbutyl}-3(R)-tert-butylbutanediamide], at HIV protease (setting [2]), the IC50 came to 4 nM. Moreover, the EC50 in assay [1] is 52 nM.

Regarding `Cc1cccc(C)c1NC(=O)C[C@@H](C(=O)NC[C@@H](O)[C@H](Cc1ccccc1)NC(=O)COc1c(C)cccc1C)C(C)(C)C` [Entry 73], the IC50 on HIV protease (setting [2]) worked out at 2.6 nM. The EC50 in assay [1] is 620 nM.

In the case of `CCC(CC)NC(=O)C[C@@H](C(=O)NC[C@@H](O)[C@H](Cc1ccccc1)NC(=O)c1ccc(Cl)cc1Cl)C(C)(C)C` [Entry 66], the IC50 at HIV protease (setting [2]) came to 4.7 nM. In addition, the EC50 in assay [1] was found to be 680 nM.

For the compound `CCC(CC)NC(=O)C[C@@H](C(=O)NC[C@@H](O)[C@H](Cc1ccccc1)NC(=O)COc1c(C)cccc1C)C(C)(C)C` [Entry 71, N^1-(1-Ethylpropyl)-N^4 -{3(S)-{{(2,6-dimethylphenoxy)acetyl}amino}-2(R)-hydroxy-4-phenylbutyl}-3(R)-tert-butylbutanediamide], the IC50 on HIV protease (setting [2]) came out at 3.5 nM. Further, the EC50 in assay [1] amounted to 645 nM.

Turning to `CCC(CC)NC(=O)C[C@@H](C(=O)NC[C@@H](O)[C@H](Cc1ccccc1)NC(=O)[C@H](CC(N)=O)NC(=O)c1cc(OC)c2ccccc2n1)C(C)(C)C` [Entry 25], the IC50 on HIV protease (setting [2]) was 4 nM. Further, the EC50 in assay [1] was 164 nM.

As to `CCC(CC)NC(=O)C[C@@H](C(=O)NC[C@@H](O)[C@H](Cc1ccccc1)NC(=O)[C@H](C(C)C)N(C)C(=O)OCc1ccccc1)C(C)(C)C` [Entry 13], the IC50 at HIV protease (setting [2]) was determined as 12 nM. The EC50 in assay [1] is 1900 nM.

Take `CCC(CC)NC(=O)C[C@@H](C(=O)NC[C@@H](O)[C@H](Cc1ccccc1)NC(=O)c1ccccc1C)C(C)(C)C` [Entry 68]: at HIV protease (setting [2]), the IC50 stood at 6.4 nM. For the same compound, in assay [1], the EC50 is 375 nM.

In the case of `CCC(CC)NC(=O)C[C@@H](C(=O)NC[C@@H](O)[C@H](Cc1ccc(O)cc1)NC(=O)COc1c(C)cccc1C)C(C)(C)C` [Entry 63, N^1-(1-ethylpropyl)-N^4 -{3(S)-{{(2,6-dimethylphenoxy)-acetyl}amino}-2(R)-hydroxy-4-(4-hydroxyphenyl)butyl}-3(R)-tert-butylbutanediamide], the IC50 at HIV protease (setting [2]) came to 3.1 nM. Also, the EC50 in assay [1] stood at 110 nM.

Turning to `CCC(CC)NC(=O)C[C@@H](C(=O)NC[C@@H](O)[C@H](Cc1ccccc1)NC(=O)[C@H](CC(N)=O)NC(=O)OCc1ccccc1)C(C)(C)C` [Entry 20], the IC50 on HIV protease (setting [2]) stood at 5 nM. Also, the EC50 in assay [1] came out at 480 nM.

Consider `CCC(CC)NC(=O)C[C@@H](C(=O)NC[C@@H](O)[C@H](Cc1ccccc1)NC(=O)COc1c(C)cc(C)cc1C)C(C)(C)C` [Entry 70], for which the IC50 on HIV protease (setting [2]) was 4.6 nM. The EC50 in assay [1] came out at 1200 nM.

In the case of `CCC(CC)NC(=O)C[C@@H](C(=O)NC[C@@H](O)[C@H](Cc1ccccc1)NC(=O)[C@H](CO)NC(=O)c1ccc2ccccc2n1)C(C)(C)C` [Entry 6], the IC50 at HIV protease (setting [2]) came to 27 nM. Also, the EC50 in assay [1] was determined as 420 nM.

For `CCC(CC)NC(=O)C[C@@H](C(=O)NC[C@@H](O)[C@H](Cc1ccccc1)NC(=O)[C@H](CC(N)=O)NC(=O)c1ccc2ccccc2n1)C(C)(C)C` [Entry 35], the IC50 at HIV protease (setting [2]) worked out at 3 nM. Besides, the EC50 in assay [1] turned out to be 130 nM.

With `CCC(CC)OC(=O)C[C@@H](C(=O)NC[C@@H](O)[C@H](Cc1ccccc1)NC(=O)[C@H](CC(N)=O)NC(=O)c1ccc2ccccc2n1)C(C)(C)C` [Entry 59, 3(R)-tert-butyl-4-{2(R)-hydroxy-4-phenyl-3(S)-{[N-(2-quinolylcarbonyl)asparaginyl]-amino}butylamino}-4-oxobutyric acid 1-ethylpropyl ester], at HIV protease (setting [2]), the IC50 was 7 nM. Moreover, the EC50 in assay [1] turned out to be 570 nM.

With `CCc1cccc(CC)c1NC(=O)C[C@@H](C(=O)NC[C@@H](O)[C@H](Cc1ccccc1)NC(=O)[C@@H](NC(=O)c1ccc2ccccc2n1)[C@@H](C)O)C(C)(C)C` [Entry 43], the IC50 at HIV protease (setting [2]) amounted to 5 nM. Further, in assay [1], the EC50 amounted to 30 nM.

Take `Cc1ccc(C)c(C(=O)N[C@@H](Cc2ccccc2)[C@H](O)CNC(=O)[C@H](CC(=O)Nc2c(C)cccc2C)C(C)(C)C)c1` [Entry 74]: at HIV protease (setting [2]), the IC50 was determined as 2 nM. Besides, in assay [1], the EC50 amounted to 370 nM.

With `CC(C)C(NC(=O)C[C@@H](C(=O)NC[C@@H](O)[C@H](Cc1ccccc1)NC(=O)[C@H](CC(N)=O)NC(=O)c1ccc2ccccc2n1)C(C)(C)C)C(C)C` [Entry 45], the IC50 at HIV protease (setting [2]) was determined as 4 nM. In assay [1], the EC50 turned out to be 150 nM.

`CCC(CC)NC(=O)C[C@@H](C(=O)NC[C@@H](O)[C@H](Cc1ccccc1)NC(=O)[C@@H](NC(=O)c1ccc2ccccc2n1)C(C)C)C(C)(C)C` [Entry 29]: on HIV protease, the IC50 was found to be 3 nM. For the same compound, the EC50 in assay [1] worked out at 52 nM.

On to `CCC(CC)NC(=O)C[C@@H](C(=O)NC[C@@H](O)[C@H](Cc1ccccc1)NC(=O)[C@H](CC(N)=O)NC(=O)c1ccnc2ccccc12)C(C)(C)C` [Entry 15], for which the IC50 at HIV protease (setting [2]) was determined as 9 nM. In assay [1], the EC50 worked out at 450 nM.

As for `CCC(CC)NC(=O)C[C@@H](C(=O)NC[C@@H](O)[C@H](Cc1ccccc1)NC(=O)[C@H](CC#N)NC(=O)c1ccc2ccccc2n1)C(C)(C)C` [Entry 37], the IC50 at HIV protease (setting [2]) stood at 3 nM. The EC50 in assay [1] is 34 nM.
